The values below are quoted from earlier work in patent EP3731827B1, “ORAL PHARMACEUTICAL COMPOSITION COMPRISING POSACONAZOLE” (Sanovel Ilac Sanayi ve Ticaret A.S., priority 2017, dated 2019).

Each structure is given as a SMILES string. Where two headings read alike, the source gives them in different places.

Regarding `CC[C@@H]([C@H](C)O)n1ncn(-c2ccc(N3CCN(c4ccc(OC[C@@H]5CO[C@@](Cn6cncn6)(c6ccc(F)cc6F)C5)cc4)CC3)cc2)c1=O` [posaconazole, 4-[4-[4-[4-[[(3R,5R)-5-(2,4-difluorophenyl)-5-(1,2,4-triazol-1-ylmethyl)oxolan-3-yl]methoxy]phenyl]piperazin-1-yl]phenyl]-2-[(2S,3S)-2-hydroxypentan-3-yl]-1,2,4-triazol-3-one], the solubility result runs as follows: (at pH 6.4 or higher) “less than 1 µg/ml”; (in the stomach) “about 0.8 mg/ml”.
